Assay type in all cases: cell-based
One assay addresses T1, Y5R (Homo sapiens, UniProt Q15761).
T1 sequence (Q15761 1-445): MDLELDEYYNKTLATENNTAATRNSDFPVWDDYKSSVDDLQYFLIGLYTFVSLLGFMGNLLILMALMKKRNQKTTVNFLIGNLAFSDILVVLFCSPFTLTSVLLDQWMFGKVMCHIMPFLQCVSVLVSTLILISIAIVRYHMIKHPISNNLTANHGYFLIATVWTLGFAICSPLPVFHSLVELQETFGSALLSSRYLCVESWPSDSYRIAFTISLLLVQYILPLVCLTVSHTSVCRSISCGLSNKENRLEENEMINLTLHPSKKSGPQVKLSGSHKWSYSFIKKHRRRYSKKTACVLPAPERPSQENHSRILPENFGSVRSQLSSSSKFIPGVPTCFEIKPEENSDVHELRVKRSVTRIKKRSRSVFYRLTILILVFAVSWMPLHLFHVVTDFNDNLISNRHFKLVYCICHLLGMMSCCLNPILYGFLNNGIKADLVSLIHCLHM
The assay is described as follows: CaFlux Assay (FLIPR), Y5R.

The target of assay [1] is T2, hNPY2R (Homo sapiens, UniProt P49146).
T2 sequence (P49146 1-381): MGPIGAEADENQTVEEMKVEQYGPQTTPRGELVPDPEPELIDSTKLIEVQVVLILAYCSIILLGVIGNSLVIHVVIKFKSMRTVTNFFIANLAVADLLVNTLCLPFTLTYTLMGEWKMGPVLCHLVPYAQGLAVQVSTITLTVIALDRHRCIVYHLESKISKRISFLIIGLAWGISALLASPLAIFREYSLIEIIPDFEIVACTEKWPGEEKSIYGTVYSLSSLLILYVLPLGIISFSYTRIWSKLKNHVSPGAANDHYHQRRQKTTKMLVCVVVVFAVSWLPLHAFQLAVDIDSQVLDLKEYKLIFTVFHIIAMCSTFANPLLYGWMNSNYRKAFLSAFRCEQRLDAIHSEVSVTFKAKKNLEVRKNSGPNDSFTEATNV
The assay is described as follows: cAMP Agonist Assay, HEK293/hNPY2R. Details: expressed in transfected cells; host or cells: HEK293/hNPY2R (G418 selection). The method, then:
In this example, the following materials were used: 384-well plate; Tropix cAMP-Screen Kit; cAMP ELISA System (Applied Biosystems, cat. #T1505; CS 20000); Forskolin (Calbiochem cat. # 344270); cells: HEK293/hNPY2R; growth medium: Dulbecco's modified eagle medium (D-MEM, Gibco); 10% Fetal bovine serum (FBS, Gibco), heat-inactivated; 1% Penicillin/Streptomycin (Pen 10000 unit/mL: Strep […], Gibco); […] G418 (Geneticin, Gibco cat. # 11811-031); and plating medium: DMEM/F12 w/o phenol red (Gibco); 10% FBS (Gibco, cat. # 10082-147), heat-inactivated; 1% Penicillin/Streptomycin (Gibco, cat. # 15140-122); […] G418 (Geneticin, Gibco, cat. # 11811-031).
On the first day, medium was discarded, and the monolayer cells were washed with 10 mL PBS per flask (T225). After decanting with PBS, 5 mL VERSENE (Gibco, cat #1504006) was used to dislodge the cells (5 min @37 C). The flask was gently tapped and the cell suspension was pooled. Each flask was rinsed with 10 mL plating medium and centrifuged at 1000 rpm for 5 min. The suspension was pooled and counted. The suspension was resuspended in plating medium at a density of 2.0×10^5 cells/mL for HEK293/hNPY2R. 50 microliters of cells (HEK293/hNPY2R-10,000 cells/well) were transferred into the 384-well plate using Multi-drop dispenser. The plates were incubated at 37° C. overnight. On the second day, the cells were checked for 75-85% confluence. The media and reagents were allowed to come to room temperature. Before the dilutions were prepared, the stock solution of stimulating compound in dimethyl sulphoxide (DMSO, Sigma, cat #D2650) was allowed to warm up to 32 C for 5-10 min. The dilutions were prepared in DMEM/F12 with 0.5 mM 3-Isobutyl-1-methylxanthine (IBMX, Calbiochem, cat #410957) and 0.5 mg/mL BSA. The final DMSO concentration in the stimulation medium was 1.1% with Forskolin concentration of 5 μM. The cell medium was tapped off with a gentle inversion of the cell plate on a paper towel. 50 μL of stimulation medium was placed per well (each concentration done in four replicates). The plates were incubated at room temperature for 30 min, and the cells were checked under a microscope for toxicity. After 30 minutes of treatment, the stimulation media was discarded and […] of Assay Lysis Buffer (provided in the Tropix kit) was added. The plates were incubated for 45 min @ 37° C. 20 μL of the lysate was transferred from stimulation plates into the pre-coated antibody plates (384-well) from the Tropix kit. 10 μL of AP conjugate and 20 μL of anti-cAMP antibody was added. The plates were incubated at room temperature while shaking for 1 hour. The plates were then washed 5 times with Wash Buffer, 70 μL per well for each wash. The plates were tapped to dry. 30 μL/well of CSPD/Saphire-II RTU substrate/enhancer solution was added and incubated for 45 min @ RT (shake). Signal for 1 sec/well in a Luminometer. (VICTOR-V) was measured.

For assay [2], the target named is T2, hNPY2R. In words: CaFlux Assay (FLIPR), Y2R. Details: expressed in transfected cells; host or cells: HEK-293 stably transfected with G protein chimera Gαqi9. The procedure: HEK-293 cells were stably transfected with the G protein chimera Gαqi9 and the hygromycin-B resistance gene were further transfected with the human NPY2 receptor and G418 antibiotic selection. Following selection in both hygromycin-B and G418, individual clones were assayed for their response to PYY. The transfected cells were cultured in DMEM medium supplemented with 10% fetal bovine serum, 50 μg/mL hygromycin-B, 2 mM glutamine, 100 U/mL penicillin, 100 μg/mL streptomycin and 250 μg/mL G418. Cells are harvested with trypsin-EDTA and counted using ViaCount reagent. The cell suspension volume is adjusted to 4.8×10^5 cells/mL with complete growth media. Aliquots of 25 μL are dispensed into 384 well Poly-D Lysine coated black/clear microplates (Falcon) and the microplates were placed in a 37° C. CO2 incubator overnight. Loading Buffer (Calcium-3 Assay Kit, Molecular Devices) was prepared by dissolving the contents of one vial (Express Kit) into […] Hank's Balanced Salt Solution containing 20 mM HEPES and 5 mM probenecid. Aliquots of 25 μL of diluted dye were dispensed into the cell plates and the plates are then incubated for 1 hour at 37° C. During the incubation, test compounds were prepared at 3.5× the desired concentration in HBSS (20 mM HEPES)/0.05% BSA/1% DMSO and transferred to a 384-well plate for use on FLIPR. After incubation, both the cell and compound plates were brought to the FLIPR and 20 μL of the diluted compounds were transferred to the cell plates by the FLIPR. During the assay, fluorescence readings were taken simultaneously from all 384 wells of the cell plate every 1.5 seconds. Five readings were taken to establish a stable baseline, and then 20 μL of sample was rapidly (30 μL/sec) and simultaneously added to each well of the cell plate. The fluorescence was continuously monitored before, during and after sample addition for a total elapsed time of 100 seconds. Responses (increase in peak fluorescence) in each well following addition were determined. The initial fluorescence reading from each well, prior to ligand stimulation, was used as a zero baseline value for the data from that well. The responses are expressed as % of maximal response of the positive control.

For another assay, the target named is Y4R (Homo sapiens, UniProt P50391). The assay is described as follows: CaFlux Assay (FLIPR), Y4R.
The target in the next assay is T3, Y1R (Homo sapiens, UniProt P25929).
T3 sequence (P25929 1-384): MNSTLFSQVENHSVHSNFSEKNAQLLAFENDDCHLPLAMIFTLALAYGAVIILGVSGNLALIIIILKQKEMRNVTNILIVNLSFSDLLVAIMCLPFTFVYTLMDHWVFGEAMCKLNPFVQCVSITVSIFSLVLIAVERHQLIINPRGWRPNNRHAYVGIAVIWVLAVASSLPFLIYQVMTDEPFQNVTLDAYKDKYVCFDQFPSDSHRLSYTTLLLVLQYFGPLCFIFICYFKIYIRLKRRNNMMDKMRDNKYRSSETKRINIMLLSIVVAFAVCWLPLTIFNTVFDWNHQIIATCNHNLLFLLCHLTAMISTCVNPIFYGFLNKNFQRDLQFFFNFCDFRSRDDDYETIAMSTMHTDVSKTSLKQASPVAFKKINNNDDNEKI
In words: CaFlux Assay (FLIPR), Y1R.

The structures appear in SMILES notation.

Y4R, sequence (P50391 whole entry): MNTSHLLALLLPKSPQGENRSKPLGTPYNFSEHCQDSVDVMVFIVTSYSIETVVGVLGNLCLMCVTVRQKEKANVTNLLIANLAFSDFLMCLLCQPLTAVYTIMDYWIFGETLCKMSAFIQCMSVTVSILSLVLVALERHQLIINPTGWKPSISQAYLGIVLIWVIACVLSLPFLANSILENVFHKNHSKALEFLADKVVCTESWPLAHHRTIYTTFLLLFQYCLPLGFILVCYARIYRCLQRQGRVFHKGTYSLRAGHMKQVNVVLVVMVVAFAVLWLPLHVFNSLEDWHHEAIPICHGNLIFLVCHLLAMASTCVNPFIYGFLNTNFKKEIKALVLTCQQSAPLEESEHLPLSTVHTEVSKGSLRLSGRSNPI

For orientation: EC50 means the midpoint of the concentration-response curve. A low value points to an effect from little substance. As to `CCCCCCCCCCCCCCCC(=O)NCCCCCC(=O)NCCCC[C@H](NC(=O)[C@@H](NC(=O)COCCOCCOCCOCCOCCOC)[C@@H](C)CC)C(=O)N1CCN(c2ccc3ncn(CC(=O)N[C@@H](CCCNC(=N)N)C(=O)N[C@@H](Cc4c[nH]cn4)C(=O)N[C@@H](Cc4ccc(O)cc4)C(=O)N[C@@H](CC(C)C)C(=O)N[C@@H](CC(N)=O)C(=O)N[C@@H](Cc4c[nH]c5ccccc45)C(=O)N[C@H](C(=O)N[C@H](C(=O)N[C@@H](CCCNC(=N)N)C(=O)N[C@@H](CCC(N)=O)C(=O)N(C)[C@@H](CCCNC(=N)N)C(=O)N[C@@H](Cc4ccc(O)cc4)C(N)=O)[C@@H](C)O)C(C)C)c(=O)c3c2)CC1` [Example 7], the EC50 on Y5R is 1130 nM; at hNPY2R [1], 0.16 nM; at hNPY2R [2] it was 0.044 nM; on Y4R, over 5000 nM; at Y1R, over 5000 nM.

As to `CCCCCCCCCCCCCCCC(=O)NCCCCCC(=O)NCCCC[C@H](NC(=O)[C@@H](NC(=O)CCOCCOCCOCCOCCOCCOCCOCCOC)[C@@H](C)CC)C(=O)N1CCN(c2ccc3ncn(CC(=O)N[C@@H](CCCNC(=N)N)C(=O)N[C@@H](Cc4c[nH]cn4)C(=O)N[C@@H](Cc4ccc(O)cc4)C(=O)N[C@@H](CC(C)C)C(=O)N[C@@H](CC(N)=O)C(=O)N[C@@H](Cc4c[nH]c5ccccc45)C(=O)N[C@H](C(=O)N[C@H](C(=O)N[C@@H](CCCNC(=N)N)C(=O)N[C@@H](CCC(N)=O)C(=O)N(C)[C@@H](CCCNC(=N)N)C(=O)N[C@@H](Cc4ccc(O)cc4)C(N)=O)[C@@H](C)O)C(C)C)c(=O)c3c2)CC1` [Example 8], the concentration for a half-maximal effect (EC50) on Y5R is 1760 nM; at hNPY2R [1], 0.17 nM; at hNPY2R [2], 0.033 nM; on Y4R it was over 5000 nM; on Y1R, over 5000 nM.

Consider `CCCCCCCCCCCCCCCC(=O)NCCCCCC(=O)NCCCC[C@H](NC(=O)[C@@H](NC(=O)CCOCCOCCOCCOCCOCCOCCOCCOCCOCCOCCOCCOC)[C@@H](C)CC)C(=O)N1CCN(c2ccc3ncn(CC(=O)N[C@@H](CCCNC(=N)N)C(=O)N[C@@H](Cc4c[nH]cn4)C(=O)N[C@@H](Cc4ccc(O)cc4)C(=O)N[C@@H](CC(C)C)C(=O)N[C@@H](CC(N)=O)C(=O)N[C@@H](Cc4c[nH]c5ccccc45)C(=O)N[C@H](C(=O)N[C@H](C(=O)N[C@@H](CCCNC(=N)N)C(=O)N[C@@H](CCC(N)=O)C(=O)N(C)[C@@H](CCCNC(=N)N)C(=O)N[C@@H](Cc4ccc(O)cc4)C(N)=O)[C@@H](C)O)C(C)C)c(=O)c3c2)CC1` [Example 9], for which the EC50 on Y5R is 1030 nM; on hNPY2R [1], 0.08 nM; at hNPY2R [2], 0.025 nM; at Y4R it was over 5000 nM; on Y1R it was over 5000 nM.

As to `CCCCCCCCCCCCCCCC(=O)NCCCCCC(=O)NCCCC[C@H](NC(=O)[C@@H](NC(=O)CCOCCOCCOCCOCCOCCOCCOCCOCCOCCOCCOCCOCCOCCOCCOCCOC)[C@@H](C)CC)C(=O)N1CCN(c2ccc3ncn(CC(=O)N[C@@H](CCCNC(=N)N)C(=O)N[C@@H](Cc4c[nH]cn4)C(=O)N[C@@H](Cc4ccc(O)cc4)C(=O)N[C@@H](CC(C)C)C(=O)N[C@@H](CC(N)=O)C(=O)N[C@@H](Cc4c[nH]c5ccccc45)C(=O)N[C@H](C(=O)N[C@H](C(=O)N[C@@H](CCCNC(=N)N)C(=O)N[C@@H](CCC(N)=O)C(=O)N(C)[C@@H](CCCNC(=N)N)C(=O)N[C@@H](Cc4ccc(O)cc4)C(N)=O)[C@@H](C)O)C(C)C)c(=O)c3c2)CC1` [Example 10], the half-maximal effective concentration (EC50) on Y5R is 816 nM; at hNPY2R [1] it was 0.13 nM; at hNPY2R [2], 0.04 nM; at Y4R, over 5000 nM; on Y1R it was over 5000 nM.

Turning to `CCCCCCCCCCCCCCCCCCCC(=O)N[C@@H](CCC(=O)N[C@@H](CCC(=O)NCCCC[C@H](NC(=O)[C@@H](NC(=O)CCOCCOCCOCCOCCOCCOCCOCCOCCOCCOCCOCCOC)[C@@H](C)CC)C(=O)N1CCN(c2ccc3ncn(CC(=O)N[C@@H](CCCNC(=N)N)C(=O)N[C@@H](Cc4c[nH]cn4)C(=O)N[C@@H](Cc4ccc(O)cc4)C(=O)N[C@@H](CC(C)C)C(=O)N[C@@H](CC(N)=O)C(=O)N[C@@H](Cc4c[nH]c5ccccc45)C(=O)N[C@H](C(=O)N[C@H](C(=O)N[C@@H](CCCNC(=N)N)C(=O)N[C@@H](CCC(N)=O)C(=O)N(C)[C@@H](CCCNC(=N)N)C(=O)N[C@@H](Cc4ccc(O)cc4)C(N)=O)[C@@H](C)O)C(C)C)c(=O)c3c2)CC1)C(=O)O)C(=O)O` [Example 24], on Y5R (FLIPR), the “Y5R FLIPR agonist character (partial agonist mark)” value is reported as “P.A”.

(Values after US20110172147A1, “NEUROPEPTIDE-2 RECEPTOR (Y-2R) AGONISTS” (priority 2009, published 2011).)
